Results taken from article PMC6220303 (EMBO Molecular Medicine, 2018).
“Also recorded” adds a separate entry of the source.

Assays:
[1] = format: in vivo; conditions: rat, 15.4 mg/kg oral
[2] = test system: APP23‐transgenic mice; assay: Chronic treatment of APP23-transgenic mice, 6 months in food; format: in vivo, mouse
Experimental: The total amount of Aβ40 and Aβ42 in formic acid‐solubilized forebrain was determined by Aβ immunoassay. […] Next, we investigated the effects of long‐term Aβ reduction on downstream pathology relevant for Alzheimer's disease, in particular neuroinflammation. Specifically, we used double‐immunofluorescence staining with NT12+anti‐Iba1 and NT12+anti‐GFAP to examine the number and localization of microglia and activated astrocytes, respectively (Fig 4E). […] The reason for the different sensitivity of microglia and astrocytes distant to plaques is currently not clear.
Electrochemiluminescence immunoassays (Mesoscale Diagnostics, Rockville, MD, USA) were used to determine Aβ38, Aβ40, Aβ42, sAPPα, and sAPPβ. For studies in normal mice and rats, the endogenous Aβ40 was extracted from the brain homogenate with 1% Triton X‐100, and the 4G8‐based assay kit was used for quantification according to the manufacturer's instructions. CSF was collected from the cisterna magna and also analyzed using the 4G8 kit. For studies in dogs, CSF was collected via a ventricular port, and the 6E10‐based Mesoscale Diagnostics kit for Aβ was used. For studies in APP23 mice, Aβ40 and Aβ42 were determined after extraction with 70% formic acid and subsequent neutralization.
Amyloid plaques were stained using the Novartis-internal rabbit anti-Aβ antibody NT12, which recognizes all forms of Aβ (Neumann et al, 2015). Activated astrocytes were detected using a commercial rabbit anti-GFAP (Z0334, Dako Schweiz GmbH, Baar, Switzerland, dilution 1:2000 in antibody diluent). Microglia cells were detected using a rabbit anti-Iba1 antibody (019-19741, Wako Chemicals GmbH, Neuss, Germany, dilution 1:200 in antibody diluent). All stainings were performed using the fully automated instrument Ventana Discovery® Ultra (Roche Diagnostics Schweiz AG, Rotkreuz, Switzerland). All chemicals were provided by Roche Diagnostic. Paraffin-embedded brain tissue sections of 3 µm were freshly cut and collected on SuperFrost+ slides. The tissues sections were de-paraffinized and rehydrated under solvent-free conditions (EZprep solution) followed by antigen retrieval (demasking) performed by heat retrieval cycles for 32 min in EDTA-based buffer (CC1 solution). Subsequently, slides were blocked for 4 min using the DISC Inhibitor RUO (reference 07017944001). The primary antibody anti-NT12 diluted at 1:20 000 in antibody diluent was manually added to tissue sections and incubated for 1h at room temperature. A short post-fixation (glutaraldehyde at 0.05%) was done before applying the […]
Detection was performed using the DISCOVERY FITC® following the manufacturer’s recommendations. Slides were then heat denaturated at 92°C for 20 min before a manual application of the second primary antibody (anti-GFAP diluted at 1:2000, anti-Iba1 diluted at 1:200) and incubated for 1h at room temperature. Sections were then incubated for 20 min at room temperature with UltraMap-anti-Rabbit HRP antibody, and the DISCOVERY Rhodamine kit […]
The slides were washed and mounted using Prolong® Gold antifade reagent (P36931, ThermoFisher, Switzerland) and further scanned with the Hamamatsu slide scanner instrument […]
(NanoZoomer 2.0 HT, scanning software NDP-Scan Version 2.5, Hamamatsu Photonics France, Swiss Office, Solothurn, Switzerland) at the 40x objective. The scanning settings were as follow: the exposure time with the DAPI filter was set at 57 ms, as was the FITC filter. The exposure time for the TRITC filter (detection of Rhodamine) was set at 14.2 ms.
For the quantitative plaque and blood vessel-associated Aβ evaluation based on image analysis, a proprietary image analysis platform (ASTORIA, Automated Stored Image Analysis) was developed based on MS Visual Studio 2010 and many functions from Matrox MIL V9 libraries (Matrox Inc, Quebec, Canada).
For the Aβ plaque, neuroinflammation and blood vessel analyses, the following sequence of steps was performed. (1) Slides were scanned with Hamamatsu Nanozoomer at 40x […]
magnification. […]

[3] = test system: C57/BL6 mice; assay: Hair depigmentation study, 8 weeks dosing; format: in vivo, mouse
Experimental: Compounds were either mixed in feed or given as a suspension orally. […] Vehicle or compounds were given orally in a volume of 10 ml/kg once daily (mornings) for 8 weeks. Vehicle: 0.1% Tween‐80 in 0.5% methylcellulose in water. […] The vehicle group was treated with food pellets containing no compound. The β1 antibody was dosed 0.5 mg/kg body weight, once weekly intraperitoneally, diluted in 90 nM NaCl, 50 nM Tris pH 7.1.

[4] = Animal toxicology studies, any species; format: in vivo
Experimental: In vivo animal toxicity studies were performed according to ICH guidance for industry M3(R2) and conformed to the Institutional Animal Care and Use Guidelines for the contract laboratory and sponsor. […] Recovery was assessed after a 12‐week treatment‐free period. Beagle dogs from Marshall BKU UK, 11 months of age, were given 0 (vehicle), 5, 15, or 30 mg/kg/day for 39 weeks. Vehicle consisted of 0.5% (w/v) methylcellulose (1,500 cPS) in 0.1% (v/v) polysorbate 80 (Tween®‐80) in reverse osmosis water. At necropsy, tissues were immersion fixed in 10% neutral‐buffered formalin or modified Davidson's solution and then processed by routine methods to paraffin block and hematoxylin–eosin (H&E)‐stained histologic slides.

[5] = logD determination; format: physicochemical; conditions: partition coefficient octanol/buffer pH 6.8
Experimental: Cellular Aβ release assays were done in CHO cells stably transfected with human wild‐type and human APP were done as described (Neumann et al, 2015). Determinations of logD, pKa, and binding to brain homogenates were done internally at Novartis, Basel. Plasma protein binding was determined by equilibrium dialysis using diluted plasma from the corresponding species. MDR‐1‐MDCK cells were obtained from Prof. A. Berns, Netherlands Cancer Institute, Amsterdam NL, and bi‐directional transport measurements were done as described (Rueeger et al, 2011). Receptor binding assays were done against an internal receptor panel and externally at Ricerca Biosciences, Peitou, Taiwan. In vitro binding and cellular patch clamp assays for hERG were done at Preclinical Safety, Novartis, Basel.

C[C@@]1(c2nc(NC(=O)c3ncc(C(F)(F)F)cc3Cl)ccc2F)CO[C@@](C)(C(F)(F)F)C(N)=N1 [CNP520]
peak concentration of unbound CNP520 in the brain [1]: 50 nM | CNP520 concentration in blood and brain at end of study ([2]; 4 and 40 mg/kg/day in food): approximately dose‐proportional | total Aβ-plaque area in the cortex (normalized to sample area) compared with vehicle ([2]; 4 and 40 mg/kg/day in food, 6 months, dose-dependent): decreased | sAPPα in mouse brain ([2]; 6 months): increased | increase in GFAP-stained astrocytes ([2]; 6 months, dose-dependent): prevented this increase | sAPPβ in mouse brain ([2]; 6 months, dose-dependent): decreased | formic acid-soluble Aβ40 and Aβ42 in forebrain compared with vehicle ([2]; high dose 40 mg/kg/day, 6 months): profoundly reduced | effect on CAA (vascular Aβ) in APP23 mice ([2]; separate study, first data, authors' response in review file): reduction of vascular Aβ | changes in other pigmented organs (hair follicle, choroid, retina pigmented epithelium) by histopathology ([3]; C57/BL6 mice, 8 weeks): Neither did we observe any changes in other pigmented organs | Aβ40 reduction in the brain ([3]; at doses with no change in hair color): more than 90% | hair depigmentation / change in hair color ([3]; male C57/BL6 mice, 8 weeks oral once daily): No change in hair color | morphological changes in CNS, peripheral nervous system, liver, endocrine pancreas, retina, skin ([4]; any species): No morphological changes were identified | depigmentation in long-term animal toxicology studies ([4]; including 9 months dosing in dogs): no signs of depigmentation; also recorded: did not result in hair depigmentation | retinal degeneration ([4]; long-term toxicological studies in rats and dogs): no retinal degeneration | logD [5]: 3.5
